# Test results: ChEMBL document CHEMBL1123053, “Analogues of platelet activating factor. 3. Replacement of the phosphate moiety with a sulfonylbismethylene group” (1985)
# Columns and labels:
# Type in all cases: functional
# Rattus norvegicus [1] = test: Effect on mean arterial blood pressure in SHR rat at the dose of 10 mg/kg i.v.; details: route intravenous
# Rattus norvegicus [2] = test: Effect on mean arterial blood pressure in SHR rat at the dose of 0.3 mg/kg i.v.; details: route intravenous
# Oryctolagus cuniculus = species on record: Oryctolagus cuniculus; test: Compound did not aggregate rabbit platelet at concentration of 1.8E-5 M
SMILES,Blood pressure (Rattus norvegicus [1]),Blood pressure (Rattus norvegicus [2]),Activity (Oryctolagus cuniculus)
CCCCCCCCCCCCCCCCOCC(CCS(=O)(=O)CCC[N+](C)(C)C)OC(C)=O.[Cl-] (stereo not drawn),20 mmHg,,
CCCCCCCCCCCCCCCCOCC(COP(=O)([O-])OCC[N+](C)(C)C)OC(C)=O (stereo not drawn) [PLATELET ACTIVATING FACTOR],,20 mmHg,Did not aggregate rabbit platelet at concentration of 1.8E-5 M
